Source: patent publication US20100209426A1, “INHIBITORS OF PROGASTRIN-INDUCED REPRESSION OF ICAT FOR TREATING AND/OR PREVENTING COLORECTAL CANCER, ADENOMATOUS POLYPOSIS OR METASTASIS DISPLAYING PROGASTRIN-SECRETING CELLS AND CELLS IN WHICH THE BETA-CATENIN/TCF-MEDIATED TRANSCRIPTIONAL PATHWAY IS CONSTITUTIVELY ACTIVE” (INSERM (INSTITUT NATIONAL DE LA SANTE ET DE LA REC HERCHE …, priority 2006, published 2010)

Columns and labels:
[1] = Plasma IL-6 and TNFα in siRNA-treated APCΔ14 mice; type: in vivo, mouse; conditions: two-week treatment, GAST siRNA versus Luc siRNA
Description: (§1) APCΔ14 mice were housed in conventional conditions, and randomized in two groups. The first group (n=9), was treated once daily by intraperitoneal administration of 250 μg/kg siRNA against the murine GAST mRNA. Control mice (n=9) were treated with a similar dose of siRNA against Luciferase. (siRNA sequence on FIG. S7 online). […] Adenoma scoring in the intestine and colon was described in (Colnot et al., 2004). Samples of healthy intestinal mucosa, as well as intestinal and colon adenomas, were fixed in 4% PFA and paraffin-embedded, or frozen in liquid nitrogen, for Western blotting, IHC or RNA extraction. Plasma was prepared and assayed for IL-6 and TNFα using the FACSarray system (Becton Dickinson).

APCΔ14 mice = test: siRNA treatment of APCΔ14 mice (spontaneous intestinal tumorigenesis); type: in vivo, mouse
Description: as §1

[2] = system: Colo-26 murine CRC cells and Young adult mouse colon (YAMC) cells; test: GAST mRNA after siRNA transfection of murine cells (RT-QPCR); type: cell-based; conditions: mouse cells (FIG. S1)

siRNA directed against the murine GAST gene: siRNA against the murine GAST mRNA; siRNAs mPG sense 5′-GAAGAGGCCUACGGAUGGTT-3′ (SEQ ID No 29), antisense SEQ ID No 30 (antisense CCAUCCGUAGGCCUCUUCTT; chemistry not given here)
levels of plasma IL-6 and TNFα (proinflammatory response) [1]: No significant differences
ICAT expression in adenomas (APCΔ14 mice; APCΔ14 mice treated with siRNA): significantly increased
expression of Tcf-4 target genes in adenomas (APCΔ14 mice; APCΔ14 mice treated with siRNA): strong repression
number of cells staining for activated caspase 3 in adenomas (APCΔ14 mice; APCΔ14 mice treated with siRNA, immunohistochemistry): strongly elevated
Muc-2 and Alcian-blue positive cells in remaining small intestinal and colonic adenomas (APCΔ14 mice; APCΔ14 mice treated with siRNA, immunohistochemistry, compared to controls): greatly increased numbers
decrease in the total number of intestinal tumors (APCΔ14 mice; APCΔ14 mice, 250 μg/kg siRNA intraperitoneal once daily for two weeks, compared to Luciferase siRNA control animals): 20%
reduction in tumor size in the colon (APCΔ14 mice; APCΔ14 mice, daily siRNA for two weeks, colon, Fischer's exact test p=0.228): not reaching significance
GAST gene and progastrin expression in intestinal adenomas (APCΔ14 mice; APCΔ14 mice, daily siRNA for two weeks, compared to Luciferase-specific siRNA): reduction
tumor size in the intestine (APCΔ14 mice; APCΔ14 mice, daily siRNA for two weeks, compared to controls, Chi-square p<0.0001, n=9 per group): significant reduction
reduction in tumor size in the ileum (APCΔ14 mice; APCΔ14 mice, daily siRNA for two weeks, ileum): particularly marked
down-regulation of GAST in mouse cells [2]: effective
